Test results published in patent US20090226500A1, “SUTURES AND ANTI-SCARRING AGENTS” (Angiotech Pharmaceuticals, Inc, priority 2006, published 2009).
“Also recorded” adds a separate entry of the source.

What was measured:
AP-1 [1] = experiment: IL-1 induced AP-1 DNA binding activity (gel mobility shift); format: cell-based; conditions: chondrocyte lysates, pretreated 10^−7 to 10^−5 M for 24 hours
Protocol: Binding activity was assayed with a radiolabeled human AP-1 sequence probe and gel mobility shift assay. Extracts from chondrocytes untreated or treated with various amounts of paclitaxet (10^−7 to 10^−5 M) followed by IL-1β (20 ng/ml) were incubated with excess probe on ice for 30 minutes, followed by non-denaturing gel electrophoresis (FIG. 10B). The “com” lane contains excess unlabeled AP-1 oligonucleotide. The results shown are representative of three independent experiments.

collagenase (MMP-1) = experiment: IL-1 induced collagenase (MMP-1) mRNA expression in chondrocytes; format: cell-based, calf
Protocol: (§1) Cells were treated with paclitaxel at various concentrations (10^−7 to 10^−5 M) for 24 hours, then treated with IL-1β (20 ng/ml) for additional 18 hours in the presence of paclitaxel. Total RNA was isolated, and the MMP-1 mRNA levels were determined by Northern blot analysis. The blots were subsequently stripped and re-probed with ^32P-radiolabeled rat GAPDH cDNA, which was used as a housekeeping gene. The results shown are representative of four independent experiments (FIG. 10D). Quantitation of collagenase-1 and stromelysin-expression mRNA levels were conducted. The MMP-1 and MMP-3 expression levels were normalized with GAPDH.
Primary chondrocyte cultures were freshly isolated from calf cartilage. The cells were plated at 2.5×10^6 per ml in 100×20 mm culture dishes and incubated in Ham's F12 medium containing 5% FBS overnight at 37° C. The cells were starved in serum-free medium overnight and then treated with anti-microtubule agents at various concentrations for 6 hours. IL-1 (20 ng/ml) was then added to each plate and the plates incubated for an additional 18 hours. Total RNA was isolated by the acidified guanidine isothiocyanate method and subjected to electrophoresis on a denatured gel Denatured RNA samples (15 μg) were analyzed by gel electrophoresis in a 1% denatured gel, transferred to a nylon membrane and hydridized with the ^32P-labeled collagenase cDNA probe. ^32P-labeled glyceraldehyde phosphate […] (GAPDH) cDNA was used as an internal standard to ensure roughly equal loading. The exposed films were scanned and quantitatively analyzed with IMAGEQUANT.

human fibroblasts = experiment: Cell proliferation of fibroblasts; format: cell-based; conditions: Fibroblast, 72 hours, CYQUANT, read-out: IC50 cell proliferation of fibroblasts
In short: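 Human fibroblasts plated at 600 cells/well, attached overnight, then exposed to drug in triplicate for 72 h at 37°C. Cell content read with CYQUANT GR dye in lysis buffer after 3-5 min at room temperature.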

[2] = system: murine RAW 264.7 macrophage cell line; experiment: Proliferation of murine RAW 264.7 macrophage cell line; format: cell-based; conditions: Mus musculus, RAW264.7
stromelysin (MMP-3) = experiment: IL-1 induced stromelysin (MMP-3) mRNA expression in chondrocytes; format: cell-based
Protocol: as §1

[3] = system: Primary human smooth muscle cells; experiment: Smooth muscle cell migration; format: cell-based; conditions: chemotaxis to rhPDGF-BB 10 ng/ml, 4 hours
Protocol: Primary human smooth muscle cells were starved of serum in smooth muscle cell basal media containing insulin and human basic fibroblast growth factor (bFGF) for 16 hours prior to the assay. For the migration assay, cells were trypsinized to remove cells from flasks, washed with migration media and diluted to a concentration of 2-2.5×10^5 cells/ml in migration media. Migration media consists of phenol red free Dulbecco's Modified Eagle Medium (DMEM) containing 0.35% human serum albumin. A 100 μL volume of smooth muscle cells (approximately 20,000-25,000 cells) was added to the top of a Boyden chamber assembly (Chemicon QCM CHEMOTAXIS 96-well migration plate). To the bottom wells, the chemotactic agent, recombinant human platelet derived growth factor (rhPDGF-BB) was added at a concentration of 10 ng/ml in a total volume of 150 μL. Paclitaxel was prepared in DMSO at a concentration of 10^−2 M and serially diluted 10-fold to give a range of stock concentrations (10^−8 M to 10^−2 M). […]
At the end of the 4-hour period, cells in the top chamber were discarded and the smooth muscle cells attached to the underside of the filter were detached for 30 minutes at 37° C. in Cell Detachment Solution (Chemicon). […] Fluorescence was read in a fluorescence microplate reader at ˜480 nm excitation wavelength and ˜520 nm emission maxima. […]

Smooth muscle cells = experiment: Proliferation of smooth muscle cells; format: cell-based; conditions: 72 hours, CYQUANT; read-out: IC50 proliferation of smooth muscle cells
In short: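 Smooth muscle cells at 600 cells/well, exposed to paclitaxel (DMSO stocks 10^−8 to 10^−2 M) in triplicate for 72 h at 37 °C. Proliferation read with CyQUANT GR dye in lysis buffer.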

AP-1 [4] = experiment: IL-1 stimulated AP-1 transcriptional activity (CAT reporter) in chondrocytes; format: cell-based; conditions: 10^−7 to 10^−5 M
[5] = system: CAM vasculature (angiogenesis); experiment: Chick chorioallantoic membrane (CAM) assay; conditions: for Inhibition/n: 48 hours

IL-1 induced AP-1 binding activity (AP-1 [1]): decreased
IL-1 induced collagenase mRNA levels (collagenase (MMP-1); at 10^−5 M): complete inhibition
IC50 [3]: 0.76 nM
SMILES: CC(=O)O[C@H]1C(=O)[C@@]2(C)[C@H]([C@H](OC(=O)c3ccccc3)[C@]3(O)C[C@H](OC(=O)[C@H](O)[C@@H](NC(=O)c4ccccc4)c4ccccc4)C(C)=C1C3(C)C)[C@]1(OC(C)=O)CO[C@@H]1C[C@@H]2O [paclitaxel, 5β,20-epoxy-1,2 alpha,4,7β,10β,13 alpha-hexahydroxytax-11-en-9-one-4,10-diacetate-2-benzoate-13-(alpha-phenylhippurate)]
concentration that inhibits IL-1-induced collagenase expression (collagenase (MMP-1); chondrocytes in vitro): 10^−6 M
IL-1 induced collagenase mRNA levels (collagenase (MMP-1); chondrocytes, pretreatment before IL-1): significantly reduced; also recorded: inhibited
IC50 (human fibroblasts): 10 to 100 nM
IC50 [2]: 134 nM
IL-1 induced stromelysin mRNA levels (stromelysin (MMP-3); at 10^−5 M): complete inhibition
concentration that inhibits stromelysin expression (stromelysin (MMP-3); chondrocytes in vitro): 10^−6 M
IL-1 induced stromelysin mRNA levels (stromelysin (MMP-3); chondrocytes, pretreatment for 24 hours): significantly reduced; also recorded: inhibited
IC50 (Smooth muscle cells): 7 nM
IL-1 induced AP-1 reporter gene CAT activity (AP-1 [4]): decreased CAT activity in a concentration dependent manner; also recorded: reduced
Inhibition/n ([5]; 0.25 μg in methylcellulose (10 μl)): 2/11
Inhibition/n ([5]; 0.5 μg in methylcellulose (10 μl)): 6/11
Inhibition/n ([5]; 1 μg in methylcellulose (10 μl)): 6/15
Inhibition/n ([5]; 5 μg in methylcellulose (10 μl)): 20/27
Inhibition/n ([5]; 10 μg in methylcellulose (10 μl)): 16/21
Inhibition/n ([5]; 30 μg in methylcellulose (10 μl)): 31/31
angiogenesis ([5]; 48 hours after application to the CAM): inhibited
avascular gradient scale ([5]; maximal avascular zone within 48 hours, depending on concentration): 3
